Source: doi:10.1101/2022.09.20.508773v1 (biorxiv, 2022)

Target: T1, NΔ47-TPH2-R (Homo sapiens, UniProt Q8IWU9)
T1 sequence (Q8IWU9 48-145): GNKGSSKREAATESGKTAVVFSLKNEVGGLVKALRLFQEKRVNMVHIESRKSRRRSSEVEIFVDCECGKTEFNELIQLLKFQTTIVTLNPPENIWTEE
Test: protein-observed NMR titration, 1H-15N HSQC, 2D line-shape analysis
Format: binding

N[C@@H](Cc1ccccc1)C(=O)O [L-Phe] was tested, and the Kd was 40.8 ± 0.8 µM.
